In patent publication US11306092B2, “Amino indole compounds useful as TLR inhibitors” (BRISTOL-MYERS SQUIBB COMPANY, priority 2017, dated 2022):
pIC50: −log10 of the molar value.

Assays:
Type in all cases: cell-based
human TLR9 = molecular target: T1, human TLR9 (Homo sapiens, UniProt Q9NR96); assay: TLR9 inhibition reporter assay (HEK-Blue SEAP reporter); settings: HEK-Blue cells overexpressing human TLR9; ODN2006 5 nM; 22 hour incubation
T1 construct: host or cells: HEK-Blue cells
T1 sequence (Q9NR96 26-1032): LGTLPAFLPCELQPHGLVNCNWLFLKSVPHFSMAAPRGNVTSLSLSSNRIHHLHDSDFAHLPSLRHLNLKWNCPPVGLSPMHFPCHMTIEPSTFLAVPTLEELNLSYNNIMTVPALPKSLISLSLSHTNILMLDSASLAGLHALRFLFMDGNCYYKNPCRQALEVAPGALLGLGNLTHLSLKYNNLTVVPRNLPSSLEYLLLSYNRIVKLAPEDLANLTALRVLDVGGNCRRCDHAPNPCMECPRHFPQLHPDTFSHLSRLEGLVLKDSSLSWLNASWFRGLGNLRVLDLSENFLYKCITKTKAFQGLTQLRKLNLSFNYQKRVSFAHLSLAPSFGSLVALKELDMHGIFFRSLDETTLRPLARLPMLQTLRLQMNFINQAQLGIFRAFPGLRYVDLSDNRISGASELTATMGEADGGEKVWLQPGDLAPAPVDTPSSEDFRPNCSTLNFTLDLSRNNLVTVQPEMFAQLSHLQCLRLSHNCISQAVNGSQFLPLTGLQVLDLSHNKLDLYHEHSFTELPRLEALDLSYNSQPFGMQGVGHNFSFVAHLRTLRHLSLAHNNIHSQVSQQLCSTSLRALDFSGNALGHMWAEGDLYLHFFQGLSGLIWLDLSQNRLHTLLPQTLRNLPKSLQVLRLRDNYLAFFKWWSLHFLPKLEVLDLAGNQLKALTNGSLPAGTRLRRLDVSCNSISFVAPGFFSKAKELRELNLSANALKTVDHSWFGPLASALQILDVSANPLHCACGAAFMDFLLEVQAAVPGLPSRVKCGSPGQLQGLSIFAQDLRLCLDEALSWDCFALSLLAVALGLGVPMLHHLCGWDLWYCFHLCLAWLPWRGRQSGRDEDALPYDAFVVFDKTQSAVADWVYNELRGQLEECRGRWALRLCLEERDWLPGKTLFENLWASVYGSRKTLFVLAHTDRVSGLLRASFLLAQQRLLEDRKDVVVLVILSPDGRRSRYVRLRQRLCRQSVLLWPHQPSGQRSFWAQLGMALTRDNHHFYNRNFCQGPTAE
Method in brief: (§1)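 Dose–response from 0.05 nM to 50 μM was run in HEK-Blue human TLR7, TLR8 and TLR9 reporter cells. After 30 min at room temperature with compound, ligand was added (TLR7 gardiquimod 7.5 μM; TLR8 R848 15.9 μM; TLR9 ODN2006 5 nM) and SEAP measured next day, at 22 h.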

human TLR8 = molecular target: T2, human TLR8 (Homo sapiens, UniProt Q9NR97); assay: TLR8 inhibition reporter assay (HEK-Blue SEAP reporter); settings: HEK-Blue cells overexpressing human TLR8; R848 15.9 μM; 22 hour incubation
T2 construct: host or cells: HEK-Blue cells
T2 sequence (Q9NR97 27-1041): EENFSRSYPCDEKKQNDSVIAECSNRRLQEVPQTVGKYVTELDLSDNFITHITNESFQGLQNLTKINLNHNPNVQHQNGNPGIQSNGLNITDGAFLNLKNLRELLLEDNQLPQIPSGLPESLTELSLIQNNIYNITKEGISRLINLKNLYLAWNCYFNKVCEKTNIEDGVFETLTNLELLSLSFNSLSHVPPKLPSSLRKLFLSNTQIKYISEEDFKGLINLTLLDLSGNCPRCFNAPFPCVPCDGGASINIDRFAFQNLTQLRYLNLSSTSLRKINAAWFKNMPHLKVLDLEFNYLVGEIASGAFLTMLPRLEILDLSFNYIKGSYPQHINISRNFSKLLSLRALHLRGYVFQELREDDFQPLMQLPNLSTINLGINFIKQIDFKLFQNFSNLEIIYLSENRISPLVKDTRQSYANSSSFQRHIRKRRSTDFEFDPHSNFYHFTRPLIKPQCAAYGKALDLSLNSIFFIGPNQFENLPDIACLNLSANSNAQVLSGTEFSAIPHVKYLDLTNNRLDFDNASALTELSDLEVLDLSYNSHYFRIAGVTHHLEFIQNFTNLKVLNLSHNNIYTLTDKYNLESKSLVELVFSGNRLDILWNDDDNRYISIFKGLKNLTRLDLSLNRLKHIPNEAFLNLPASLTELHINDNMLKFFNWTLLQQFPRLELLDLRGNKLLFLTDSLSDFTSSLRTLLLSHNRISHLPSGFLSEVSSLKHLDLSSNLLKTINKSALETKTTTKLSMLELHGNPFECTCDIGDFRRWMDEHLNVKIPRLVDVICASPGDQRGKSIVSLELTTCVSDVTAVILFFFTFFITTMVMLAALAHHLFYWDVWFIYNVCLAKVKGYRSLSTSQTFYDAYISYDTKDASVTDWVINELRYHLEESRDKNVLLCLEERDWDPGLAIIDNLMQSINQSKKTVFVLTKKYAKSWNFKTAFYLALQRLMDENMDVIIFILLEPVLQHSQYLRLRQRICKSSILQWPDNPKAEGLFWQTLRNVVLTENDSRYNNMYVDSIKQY
Experimental: TLR7/8/9 Inhibition Reporter Assays
HEK-Blue™-cells (Invivogen) overexpressing human TLR7, TLR8 or TLR9 receptors were used for screening inhibitors of these receptors using an inducible SEAP (secreted embryonic alkaline phosphatase) reporter gene under the control of the IFN-β minimal promoter fused to five NF-κB and AP-1-binding sites. Briefly, cells are seeded into Greiner 384 well plates (15000 cells per well for TLR7, 20,000 for TLR8 and 25,000 for TLR9) and then treated with test compounds in DMSO to yield a final dose response concentration range of 0.05 nM-50 μM. After a 30 minute compound pre-treatment at room temperature, the cells are then stimulated with a TLR7 ligand (gardiquimod at a final concentration of 7.5 μM), TLR8 ligand (R848 at a final concentration of 15.9 μM) or TLR9 ligand (ODN2006 at a final concentration of 5 nM) to activate NF-κB and AP-1 which induce the production of SEAP. After a 22 hour incubation at 37° C., 5% CO2, SEAP levels are determined with the addition of HEK-Blue™ Detection reagent (Invivogen), a cell culture medium that allows for detection of SEAP, according to manufacturer's specifications. The percent inhibition is determined as the % reduction in the HEK-Blue signal present in wells treated with agonist plus DMSO alone compared to wells treated with a known inhibitor.

human TLR7 = molecular target: T3, human TLR7 (Homo sapiens, UniProt Q9NYK1); assay: TLR7 inhibition reporter assay (HEK-Blue SEAP reporter); settings: HEK-Blue cells overexpressing human TLR7; gardiquimod 7.5 μM; 22 hour incubation
T3 construct: host or cells: HEK-Blue cells
T3 sequence (Q9NYK1 27-1049): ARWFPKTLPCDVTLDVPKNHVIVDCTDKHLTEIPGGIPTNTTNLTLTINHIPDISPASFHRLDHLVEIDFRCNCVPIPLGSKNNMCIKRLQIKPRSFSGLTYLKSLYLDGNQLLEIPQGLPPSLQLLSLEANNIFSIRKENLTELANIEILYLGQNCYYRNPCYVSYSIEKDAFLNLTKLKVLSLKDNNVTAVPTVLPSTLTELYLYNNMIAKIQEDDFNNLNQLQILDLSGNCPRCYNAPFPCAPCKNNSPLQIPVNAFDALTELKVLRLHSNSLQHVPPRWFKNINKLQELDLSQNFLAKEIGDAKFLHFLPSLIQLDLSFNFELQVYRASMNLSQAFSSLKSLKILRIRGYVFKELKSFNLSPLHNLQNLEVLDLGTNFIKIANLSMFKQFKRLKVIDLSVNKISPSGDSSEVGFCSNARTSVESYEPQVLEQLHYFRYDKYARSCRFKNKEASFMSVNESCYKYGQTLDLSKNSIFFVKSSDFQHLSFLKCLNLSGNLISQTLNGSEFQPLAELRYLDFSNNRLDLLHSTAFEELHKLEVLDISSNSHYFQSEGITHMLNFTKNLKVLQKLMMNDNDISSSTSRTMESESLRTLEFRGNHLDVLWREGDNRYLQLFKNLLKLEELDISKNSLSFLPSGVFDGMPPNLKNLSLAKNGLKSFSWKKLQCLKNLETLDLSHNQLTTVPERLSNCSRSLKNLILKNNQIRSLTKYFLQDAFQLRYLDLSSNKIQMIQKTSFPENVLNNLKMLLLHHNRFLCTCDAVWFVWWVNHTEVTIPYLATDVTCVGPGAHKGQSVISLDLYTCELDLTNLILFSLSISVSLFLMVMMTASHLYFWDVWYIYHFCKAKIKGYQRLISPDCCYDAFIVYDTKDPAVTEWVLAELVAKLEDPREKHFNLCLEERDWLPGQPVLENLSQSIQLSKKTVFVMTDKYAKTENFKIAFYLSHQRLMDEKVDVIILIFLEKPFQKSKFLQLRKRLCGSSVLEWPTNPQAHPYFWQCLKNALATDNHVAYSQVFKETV
Method in brief: as §1

pIC50 (human TLR9) | pIC50 (human TLR8) | pIC50 (human TLR7) | SMILES
5.04 | 7.09 | 7.17 | COc1ccc(-c2[nH]c3ccc(N4CCC(N(C)C)C4=O)cc3c2C(C)C)cc1OC (stereo not drawn) [Example 4, 1-(2-(3,4-dimethoxyphenyl)-3-isopropyl-1H-indol-5-yl)-3-(dimethylamino)pyrrolidin-2-one]
4.76 | 6.22 | 5.80 | Cc1cc(-c2[nH]c3ccc(N4CCC(OCCN(C)C)C4=O)cc3c2C(C)C)ccn1 (stereo not drawn) [Example 7, 3-(2-(dimethylamino)ethoxy)-1-(3-isopropyl-2-(2-methylpyridin-4-yl)-1H-indol-5-yl)pyrrolidin-2-one]
< 4.30 | 7.60 | 7.04 | Cc1cc(-c2[nH]c3ccc(N4CCNC4=O)cc3c2C(C)C)ccn1 [Example 8, 1-(3-isopropyl-2-(2-methylpyridin-4-yl)-1H-indol-5-yl)imidazolidin-2-one]
5.25 | 7.15 | 6.09 | CC(C)c1c(-c2ccnc3[nH]ncc23)[nH]c2ccc(NC(=O)[C@@H]3CCNC3)cc12 [Example 9, (R)—N-(3-isopropyl-2-(1H-pyrazolo[3,4-b]pyridin-4-yl)-1H-indol-5-yl)pyrrolidine-3-carboxamide]
5.11 | 7.02 | 7.14 | CC(C)c1c(-c2ccnc3[nH]ncc23)[nH]c2ccc(NC(=O)[C@H]3CCNC3)cc12 [Example 10, (S)—N-(3-isopropyl-2-(1H-pyrazolo[3,4-b]pyridin-4-yl)-1H-indol-5-yl)pyrrolidine-3-carboxamide]
5.07 | 7.77 | 6.54 | COc1ccc(-c2[nH]c3ccc(NC(=O)CN)cc3c2C(C)C)cc1OC [Example 11, 2-amino-N-(2-(3,4-dimethoxyphenyl)-3-isopropyl-1H-indol-5-yl)acetamide]
5.25 | 7.43 | 6.69 | COc1ccc(-c2[nH]c3ccc(NC(=O)CCCN)cc3c2C(C)C)cc1OC [Example 12, 4-amino-N-(2-(3,4-dimethoxyphenyl)-3-isopropyl-1H-indol-5-yl)butanamide]
6.26 | 8.08 | 7.29 | COc1ccc(-c2[nH]c3ccc(NC(=O)C4CCNC4)cc3c2C(C)C)cc1OC (stereo not drawn) [Example 13, N-(2-(3,4-dimethoxyphenyl)-3-isopropyl-1H-indol-5-yl) pyrrolidine-3-carboxamide]
5.11 | 7.17 | 6.46 | CCC[C@@H](N)C(=O)Nc1ccc2[nH]c(-c3ccc(OC)c(OC)c3)c(C(C)C)c2c1 [Example 14, (R)-2-amino-N-(2-(3,4-dimethoxyphenyl)-3-isopropyl-1H-indol-5-yl)pentanamide]
5.13 | 8.47 | 7.60 | COc1ccc(-c2[nH]c3ccc(NC(=O)C4CNCCO4)cc3c2C(C)C)cc1OC (stereo not drawn) [Example 15, N-(2-(3,4-dimethoxyphenyl)-3-isopropyl-1H-indol-5-yl)morpholine-2-carboxamide]
5.24 | 7.33 | 5.68 | COc1ccc(-c2[nH]c3ccc(NC(=O)[C@H](N)CC(C)C)cc3c2C(C)C)cc1OC [Example 16, (R)-2-amino-N-(2-(3,4-dimethoxyphenyl)-3-isopropyl-1H-indol-5-yl)-4-methylpentanamide]
5.22 | 7.14 | 6.52 | CC[C@@H](C)[C@@H](N)C(=O)Nc1ccc2[nH]c(-c3ccc(OC)c(OC)c3)c(C(C)C)c2c1 [Example 17, (2R,3R)-2-amino-N-(2-(3,4-dimethoxyphenyl)-3-isopropyl-1H-indol-5-yl)-3-methylpentanamide]
< 4.30 | 6.97 | 6.90 | COc1ccc(-c2[nH]c3ccc(NC(=O)[C@@H](N)CCCN)cc3c2C(C)C)cc1OC [Example 20, (S)-2,5-diamino-N-(2-(3,4-dimethoxyphenyl)-3-isopropyl-1H-indol-5-yl)pentanamide]
